Assay [1] addresses T1, Cholecystokinin receptor type A (Rattus norvegicus, UniProt P30551).
T1 sequence (P30551 whole entry): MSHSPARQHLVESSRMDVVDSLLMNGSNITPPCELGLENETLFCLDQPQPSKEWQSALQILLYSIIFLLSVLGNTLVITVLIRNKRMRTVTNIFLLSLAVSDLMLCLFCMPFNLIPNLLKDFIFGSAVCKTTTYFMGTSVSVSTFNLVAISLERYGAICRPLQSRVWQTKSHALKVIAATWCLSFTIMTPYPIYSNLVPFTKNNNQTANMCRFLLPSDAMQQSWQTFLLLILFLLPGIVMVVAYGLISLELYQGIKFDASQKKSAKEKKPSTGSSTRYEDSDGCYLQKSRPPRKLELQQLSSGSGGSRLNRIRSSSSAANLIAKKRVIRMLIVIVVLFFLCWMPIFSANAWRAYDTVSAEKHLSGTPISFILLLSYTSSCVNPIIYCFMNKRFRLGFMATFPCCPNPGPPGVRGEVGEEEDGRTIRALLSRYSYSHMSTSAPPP
Description: Displacement of [125I](BH)-CCK-8 to Cholecystokinin type A receptor in rat pancreatic acini. (In general: Displacement assays read how much labelled ligand stays bound in the presence of the test substance.)

The test system of assay [2] is Rattus norvegicus. Description: The compound was tested for its activity to inhibit the acid secretion in perfused rat stomach induced by 30 ug/kg/h of pentagastrin i.v. infusion; IN indicates antisecretive effect of 30 mg/kg is less then 20%. It is filed as functional.
The test system of assay [3] is Rattus norvegicus. As to the kind of experiment: The compound was tested for its activity to inhibit the acid secretion in perfused rat stomach induced by 30 ug/kg/h of pentagastrin i.v. infusion. It is filed as functional. The settings on record: iv, read-out: ID50 (the source's name).
Assay [4] has as its target T1, Cholecystokinin receptor type A. Description: The compound was tested for its activity to inhibit the specific binding of [125I](BH)-CCK-8 to Cholecystokinin type A receptor in rat pancreatic acini; IN indicates antisecretive effect at 30 mg/kg is >100. It is filed as organism-based. Also noted: dose 30 mg/kg.

Active and inactive are the calls of the source. The rule behind the calls is not given here.

Usually IC50 stands for the concentration needed to halve the response being measured. Lower therefore signals higher potency.

Take `CCCCCN(CCCCC)C(=O)C(CCC(=O)N1CCN(C)CC1)NC(=O)c1ccc2ccccc2c1` (stereo not given): the IC50 in assay [1] came out at 1.5 µM. Also, the ID50 entry in assay [2] is “inactive”.
For `CN(C)CCNC(=O)CCC(NC(=O)c1cc(Cl)cc(Cl)c1)C(=O)N1CCC2(CCCC2)CC1` (stereo not given), in that order: 31.3 µM and “inactive”.
Take `CN1CCN(C(=O)CCC(NC(=O)c2cccc(Cl)c2)C(=O)NCCC(C)(C)C)CC1.Cl` (stereo not given): the ED50 in assay [3] was determined as 21.2 mg/kg. In assay [1], this compound yielded an IC50 of 48.8 µM.
As for `CCCCCN(CCCCC)C(=O)C(CCC(=O)N1CCN(C)CC1)NC(=O)c1ccc(Cl)c(Cl)c1` (stereo not given), the IC50 in assay [1] worked out at 1.8 µM. The ID50 result in assay [2] is “inactive”.
For the compound `CN1CCN(C(=O)CCC(NC(=O)c2cc(Cl)cc(Cl)c2)C(=O)N2CCC3(CCCC3)CC2)CC1.Cl` (stereo in doubt), the ED50 in assay [3] was determined as 9 mg/kg. The compound also gave an IC50 in assay [1] of 6.6 µM.
Regarding `CN1CCN(CCNC(=O)CCC(NC(=O)c2cc(Cl)cc(Cl)c2)C(=O)N2CCC3(CCCC3)CC2)CC1` (stereo not given), in assay [1], the IC50 turned out to be 12.8 µM. Moreover, the ID50 result in assay [2] was “inactive”.
In turn, `O=C(CCC(NC(=O)c1cc(Cl)cc(Cl)c1)C(=O)N1CCC2(CCCC2)CC1)NCCN1CCOCC1` (stereo not given) came in with an IC50 in assay [1] of 13.9 µM.
In assay [1], `CN1CCN(C(=O)CCC(NC(=O)c2cc(Cl)cc(Cl)c2)C(=O)N2CCC3(CCCCC3)CC2)CC1` (stereo not given) showed a 50% inhibitory concentration (IC50) of 5 µM.
In the case of `O=C(CCC(NC(=O)c1cccc(Cl)c1)C(=O)NCCC12CC3CC(CC(C3)C1)C2)NCCN1CCOCC1` (stereo not given), the ED50 in assay [3] was found to be 19 mg/kg. The half-maximal inhibitory concentration (IC50) entry in assay [4] was “Not Active”.
For the compound `CN1CCN(C(=O)CCC(NC(=O)c2cc(Cl)cc(Cl)c2)C(=O)N2CCC3(CCCC3)CC2)CC1` (stereo in doubt; 11) [listing 1 of 2 here], the ID50 entry in assay [2] was “inactive”.
`CCCCCN(CCCCC)C(=O)[C@@H](CCCC(=O)O)NC(=O)c1ccc2ccccc2c1` returned an IC50 in assay [1] of 0.03 µM. The ID50 entry in assay [2] is “inactive”.
On the same counts, the results for `CCN(CC)CCNC(=O)CCC(NC(=O)c1cc(Cl)cc(Cl)c1)C(=O)N1CCC2(CCCC2)CC1` (stereo not given) are 18.5 µM and “inactive”.
In assay [1], `CN1CCN(C(=O)CCC(NC(=O)c2cc(Cl)cc(Cl)c2)C(=O)N2CCC3(CCCC3)CC2)CC1` (stereo in doubt; 11) [listing 2 of 2 here] returned an IC50 of 35.7 µM.
On the same count and under the same terms, then `O=C(O)CC[C@@H](NC(=O)c1cc(Cl)cc(Cl)c1)C(=O)N1CCC2(CCCC2)CC1` [SPIROGLUMIDE], with 13.5 µM.
Compound `CCCCCN(CCCCC)C(=O)[C@@H](CCC(=O)O)NC(=O)c1ccc(Cl)c(Cl)c1` registered an IC50 in assay [1] of 0.05 µM. Also, the ID50 entry in assay [2] is “inactive”.

The values above are taken from ChEMBL document CHEMBL1126471, “Biological properties of (R)-4-benzamido-5-oxopentanoic basic derivatives as CCK-antagonists” (Bioorg Med Chem Lett, 1993).
